Data from publication PMC6804080, “Benzoxaboroles—Novel Autotaxin Inhibitors” (Molecules, 2019).
Values after ≈ are worked out from the molar mass of the structure shown. Values joined by “and” are separate entries in the source; they are usually repeats but may differ in a detail not shown here. Equal values may be shown once. Read-outs that look alike come from different tables or passages of the source.

Tests used:
glioma tumor = tested on: glioma tumor; set-up: method as in PMID 30462853; conditions: in vivo; cited from earlier work
glioblastoma cell lines = tested on: glioblastoma cell lines; set-up: method as in PMID 30462853; conditions: cited from earlier work
LPA plasma levels = conditions: cited from earlier work
[1] = in vitro plasma stability, rat plasma; format: in vitro ADME; conditions: after 4 h
Description: (§1) The in vitro plasma stability of the test compounds was studied in human and rat plasma with propranolol, benflorex, and eucatropine as control substances. All compounds at final concentrations of 5 μM (0.5% DMSO) were incubated in a phosphate buffer (50 mM, pH 7.4) for 4 h at 37 °C together with plasma. Aliquots were taken at different time points (0, 30, 120 min and 4 h), followed by reaction termination by the addition of CH3CN:CH3OH 2:1 v/v., which contained diclofenac and warfarin as internal standards (IS). Samples were then centrifuged (at 1600 rpm at 4 °C for 30 min), and the resulting supernatants were subjected to LC/MS/MS analysis. Results are expressed as % remaining.

[2] = metabolic stability in rat liver microsomes; format: in vitro ADME
Description: (§2) Metabolic stability was assessed in rat and human liver microsomes, with testosterone and propranolol as positive controls. All compounds, at a final concentration of 1 μM (0.03% DMSO), were incubated in a phosphate buffer (50 mM, pH 7.4) for 60 min at 37 °C, together with liver microsomes in the absence and presence of NADPH generating system (nicotinamide adenine dinucleotide phosphate (NADP, 2 mM), glucose-6-phosphate (20 mM), glucose-6-phosphate dehydrogenase (6U) and magnesium chloride (2 mM)). Aliquots were taken at different time points (0, 10, 20, 30, 45 and 60 min), followed by reaction termination by addition of CH3CN:CH3OH 2:1 v/v, containing diclofenac as internal standard (IS). Samples were then centrifuged (at 2000 rpm at 4 °C for 30 min), and resulting supernatants were subjected to LC/MS/MS analysis. The in vitro half-life was calculated in GraphPadPrism software from % remaining vs. time regression using non-linear regression fit. In vitro intrinsic clearance, expressed as mL/min/g liver, was determined from in vitro half-life and normalized for the protein concentration in the incubation mixture, assuming a 52.5 mg/g liver.

[3] = plasma protein binding, equilibrium dialysis, rat plasma; format: in vitro ADME; conditions: pH 7.4, rat plasma
Description: (§3) Plasma protein binding was measured using the equilibrium dialysis technique. Positive controls included in this assay were: Acebutolol (low binding) and nicardipine (very high binding). The assay was performed in a 96-well Teflon dialysis unit, where each well consisted of two chambers separated by a dialysis membrane. Plasma (human and rat, commercially obtained from Seralab) spiked with each compound (final concentration: 5 µM, 0.5% DMSO) were added to one chamber, and a blank buffer solution (60 mM Na2HPO4/14 mM KH2PO4/70 mM NaCl; pH 7.4) was added to the other side of the well. Each compound was analyzed in duplicate, for 4 h at 37 °C. After 4 h, both the plasma (free and bound fraction) and buffer (only free fraction) side of the well were sampled, matrix matched, then precipitated with a STOP solution (CH3CN:CH3OH 2:1 v/v, containing diclofenac as internal standard), and centrifuged at 2000 rpm for 30 min (+4 °C). The resulting supernatants were analyzed by LC-MS/MS. The fraction bound was calculated as the concentration difference (analyte vs. internal standard peak area ratio) in the plasma and buffer sides divided by the total concentration in the plasma side. Sampling was also performed from spiked plasma at t = 0 min in order to determine recovery, i.e., % of compound detected at t = 4 h in both the plasma and buffer chambers divided by the compound detected at t = 0 min.

[4] = set-up: method as in PMID 23688339; conditions: cited from earlier work
[5] = metabolic stability in human liver microsomes; format: in vitro ADME
Description: as §2

[6] = plasma protein binding, equilibrium dialysis, human plasma; format: in vitro ADME; conditions: pH 7.4, read-out: PPB: fraction bound, human (converted)
Description: as §3

[7] = in vitro plasma stability, human plasma; format: in vitro ADME; conditions: after 4 h
Description: as §1

[8] = cited from earlier work
ATX [9] = tested on: ATX; set-up: method as in PMID 23688339; conditions: read-out: IC50 (inhibitory properties); cited from earlier work
ATX [10] = conditions: read-out: reported activity in in vitro LPC choline release assay; cited from earlier work
[11] = tested on: A2058 human melanoma cells; conditions: dose-dependent manner; cited from earlier work
[12] = kinetic solubility, turbidimetric method; format: physicochemical; conditions: 37 °C, pH 7.4, aqueous buffer, kinetic from dmso stock, Solubility (kinetic solubility range)
Description: Turbidimetric solubility allows for a rapid determination of kinetic solubility by using small amounts of the test compound. Assay controls were α-naphtoflavone (low solubility) and sulfaphenazole (expected solubility >100µM). DMSO stock solutions (10 mM) of each compound were first serially diluted 1 in 3 in DMSO and then spiked into an aqueous buffer (100 mM PBS), resulting in 5 following final concentration: 100, 30, 10, 3 and 1 µM (each concentration was tested in duplicate). […] Compound samples were compared to a solvent control in an aqueous buffer (DMSO 1% final concentration), and a significant increase of sample absorbance was considered to have occurred when the absorbance reached a 3-fold standard deviation of the average DMSO absorbance. The calculation of solubility range data was made by Excel tool software. Results are expressed as an estimated solubility range.

Autotaxin (ATX) = molecular target: T1, Autotaxin (ATX) (Homo sapiens, UniProt Q13822); assay: biochemical choline detection assay for ATX inhibition, LysoPC substrate
T1 construct: we added 10 μL of recombinant ATX (2 ng/mL) in a Tris–HCl buffer
Description: All 21 new benzoxaboroles derivatives prepared herein were evaluated for ATX inhibition in vitro using a biochemical choline detection assay, combining elements of assays already described in the literature.
[…] Mother plates with serial dilutions of compounds in pure DMSO were prepared from 10 mM DMSO stock solutions. Storplate-384-deep-well-V plates (Perkin Elmer) were also used for mother plate preparation. Compounds were diluted in a DMSO in a ratio of 1:3. An aliquot of 200 nL of compound solution was transferred from the mother plate to the test plate with a Mosquito nanoliter liquid handling system (TTP labtech). The assay was performed in Spectra-Plate-384 TC, transparent, (Perkin Elmer, Cat#6007658) using a 20 µL assay volume. The total final percentage of DMSO in the test media was 1%. Compounds were tested at 11 consecutive three-fold dilutions starting from 50 µM (final concentrations) in duplicate, covering range of 0.0008–50 μM to determine IC50 values. […] After dispensing of compounds directly to the dry plate, we added 10 μL of recombinant ATX (2 ng/mL) in a Tris–HCl buffer (140 mM NaCl, 1mM MgCl2, 5 mM KCl, 3 mM CaCl2, 1 mg/ml bovin serum albumin (BSA, fatty acid free) and 100 mM Tris–HCl, pH 9). […] The above-described solution with dimethyl sulfoxide but without the test compound was used as a control. LysoPC without ATX was used as a control for the autohydrolysis of LysoPC. After 1.5 h of incubation, 20 μL of stop solution and developer was added {Choline oxidase (1.2 U/mL), Peroxidase (1.2 U/mL), TOOS (2.7 mM), 4-Aminoantipyrine (2.7 mM), and EDTA (50 mM)} to the reaction mixture, and absorbance was measured after 30 min of incubation. The absorbance was measured by using Perkin-Elmer EnVision plate reader (λ = 555 nm). Data were analyzed using GraphPad Prism software. The calculation of IC50 data, curves and quality control (QC) analysis was made by using Excel tools and GraphPadPrism software. Briefly, individual concentration–effect curves were generated by plotting the logarithm of the tested concentration of tested compounds (X) vs. corresponding percentage inhibition values (Y) using a least squares (ordinary) fit. […] QC criteria parameters (Z,’ S:B, ΔmP) were checked for every plate.

[13] = Chrom logD determination by gradient HPLC (CHI); format: physicochemical; conditions: reversed-phase HPLC, Phenomenex Luna C18 column; pH 7.4, Luna C18 column
Description: clogP values were calculated for all compounds using the Percepta software. Chrom logD was determined experimentally using a procedure described in the supplementary data. Furthermore, the correlation between calculated clogP values and experimentally determined Chrom log D values were explored for molecules containing boron functional groups such as boronic acids and benzoxaboroles.
Chrom logD values were determined from the following equation: Chrom logD = 0.0857 × CHI − 2 [39]. Chromatographic hydrophobic index (CHI) values were determined from the gradient retention times (RT). These values approximately corresponded to the volume percentage of organic component in the mobile phase when the compound elutes. CHI values were determined at pH 7.4. Chromatograms were obtained using on Agilent 1100 Series liquid chromatography system with an HPLC diode-array detector (DAD) coupled with a Micromass Quattro micro atmosphere pressure ionization (API) mass spectrometer. The column used for analyses was Phenomenex Luna C18 (50 × 3 mm, 5 µm, 100 Å). The column was maintained at 25 °C. The flow rate was 1.0 mL/min. The mobile phase was composed of 50 mM ammonium acetate in water at pH 7.4 (solvent A) and acetonitrile (solvent B). The solvent gradient condition was initially 0.5% B, and then it increased linearly to 100% B over 3.0 min, remaining at 100% B for 0.5 min, then decreasing linearly to 0% B over 0.2 min followed by an equilibration period of 1.3 min prior to the next injection. The total experimental duration was 5 min. Injection volume was 2.0 µl. Samples temperature was maintained at 15 °C in the autosampler chamber. A group of ten standard compounds having different CHI values was used for calibration of RP-HPLC [40].

[14] = read-out: PPB: fraction bound, rat (converted)
[15] = mice, intravenous administration 1 nmol/g

SMILES	LPA in the in vivo study (LPA plasma levels)	PS (plasma stability), rat [1]	LMS: predicted in vivo hepatic clearance, rat [2]	fraction unbound at 4 h, 5 µM [3, 14]	LMS: predicted in vivo hepatic clearance, human [5]	fraction unbound at 4 h, 5 µM [6]	PS (plasma stability), human [7]	half-life in vivo [8]	also measured
O=C(CCN1CCN(C(=O)OCc2cc(Cl)cc(Cl)c2)CC1)c1ccc2[nH]c(=O)oc2c1 [PF-8380]	–	–	–	–	–	–	–	–	glioma tumor growth progression (glioma tumor): delaying simultaneously glioma tumor growth progression; anti-invasive effect (glioblastoma cell lines): significant anti-invasive effect
O=C1S/C(=C\c2ccc(OCc3ccc(B(O)O)cc3)cc2)C(=O)N1Cc1ccc(F)cc1 [HA155, reference compound]	lowering LPA significantly	65.7 %remaining	< 30 %LBF	0.001	54 %LBF	< 0.001	42.9 %remaining	less than five	fraction unbound at 4 h, 5 µM ([3]; read-out: fraction unbound, rat plasma): 0.004; Solubility, value taken from literature [4]: 6.8 µM (≈ 3.15 µg/mL)
O=C1N=C(N2CCN(Cc3cccc(B(O)O)c3)CC2)SC1=Cc1ccc(Cl)c(Cl)c1 [Compound 3BoA]	–	–	–	–	–	–	–	–	LPA plasma levels (LPA plasma levels; mice, 4 mg/kg i.v. injection): significantly decreases LPA plasma levels (almost to zero); plasma LPA levels (LPA plasma levels; mice, 4 mg/kg intravenous administration): decreases rapidly plasma LPA levels; IC50 (ATX [9]): 13 nM
O=C1S/C(=C\c2ccc(OCc3cccc(B(O)O)c3)cc2)C(=O)N1Cc1ccc(F)cc1 [HA130]	lowering LPA significantly	–	–	–	–	–	–	less than five	LPA levels in the plasma (LPA plasma levels; [15]): rapid decrease of LPA levels; toxicity (LPA plasma levels; [15]): no overt toxicity issues observed; IC50 (ATX [10]): 28 nM; ATX-mediated migration of A2058 human melanoma cells [11]: inhibited
O=C(OCc1cc(Cl)cc(Cl)c1)N1CCN(C2CN(C(=O)c3ccc4c(c3)B(O)OC4)C2)CC1 [Compound 37, (3,5-dichlorophenyl)methyl 4-[1-(1-hydroxy-3H-2,1-benzoxaborole-6-carbonyl)azetidin-3-yl]piperazine-1-carboxylate]	–	71.2 %remaining and 72.2 %remaining	62 %LBF	0.016	85 %LBF	0.021	79.1 %remaining	–	solubility kinetic at 1 h [12]: 30 to 100 µM (≈ 15.1 to 50.4 µg/mL); IC50 (Autotaxin (ATX); choline release assay using as a substrate, mean standard deviation from duplicate experiments): 130 ± 120 nM; ATX inhibition, range of activity (Autotaxin (ATX); in words): nanomolar range; chromatographic logD [13]: 4.58
